Test results as given in the supplement of paper PMC6045584.
± gives the standard deviation of the averaged measurements.

Assays:
ABT-737 = compound: CN(C)CC[C@H](CSc1ccccc1)Nc1ccc(S(=O)(=O)NC(=O)c2ccc(N3CCN(Cc4ccccc4-c4ccc(Cl)cc4)CC3)cc2)cc1[N+](=O)[O-] [ABT-737]; assay: surviving fraction relative to DMSO-only wells; higher = less growth inhibition; settings: exposure time: 5 days
Method in brief: (§1)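 Tumour cell lines in log phase were plated in 384-well plates at 250–500 cells per well, then, after 24 hours, exposed continuously for five days to inhibitors at 0.5, 1, 5, 10, 50, 100, 500 and 1000 nM. Viability came from CellTiter-Glo luminescence, and surviving fraction is that signal normalised to the median of DMSO-only wells. Plates were read after 10 minutes at room temperature, and each line, screened three times, was kept only when replicate Pearson r was >0.7 and median Z' was >0.3.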

LAPATINIB = compound: CS(=O)(=O)CCNCc1ccc(-c2ccc3ncnc(Nc4ccc(OCc5cccc(F)c5)c(Cl)c4)c3c2)o1 [LAPATINIB]; assay: as above; settings: exposure time: 5 days
Method in brief: as §1

Row | Test System | surviving fraction (ABT-737; 0.5 nM) | surviving fraction (ABT-737; 1 nM) | surviving fraction (ABT-737; 5 nM) | surviving fraction (ABT-737; 10 nM) | surviving fraction (ABT-737; 50 nM) | surviving fraction (ABT-737; 100 nM) | surviving fraction (ABT-737; 500 nM) | surviving fraction (ABT-737; 1000 nM) | surviving fraction (LAPATINIB; 0.5 nM) | surviving fraction (LAPATINIB; 1 nM) | surviving fraction (LAPATINIB; 5 nM) | surviving fraction (LAPATINIB; 10 nM) | surviving fraction (LAPATINIB; 50 nM) | surviving fraction (LAPATINIB; 100 nM) | surviving fraction (LAPATINIB; 500 nM) | surviving fraction (LAPATINIB; 1000 nM)
1 | SYO1 SYNOVIAL | 1.03 ± 0.048 | 1.039 ± 0.01 | 1.03 ± 0.07 | 1.025 ± 0.0082 | 1.04 ± 0.08 | 0.984 ± 0.048 | 0.752 ± 0.03 | 0.504 ± 0.024 | 0.992 ± 0.026 | 1.03 ± 0.08 | 0.976 ± 0.034 | 1.04 ± 0.041 | 0.938 ± 0.033 | 0.976 ± 0.032 | 0.966 ± 0.026 | 0.975 ± 0.021
2 | T47D BREAST | 1.13 ± 0.026 | 1.08 ± 0.031 | 1.08 ± 0.08 | 1.08 ± 0.025 | 1.03 ± 0.2 | 1.089 ± 0.0036 | 1.11 ± 0.11 | 1.05 ± 0.035 | 1.01 ± 0.068 | 1.07 ± 0.036 | 1.08 ± 0.072 | 1.07 ± 0.05 | 1.01 ± 0.019 | 1.04 ± 0.05 | 1 ± 0.041 | 1.01 ± 0.017
3 | U2OS BONE | 1.04 ± 0.048 | 1.04 ± 0.026 | 1.06 ± 0.055 | 1.04 ± 0.012 | 1.08 ± 0.035 | 1.11 ± 0.024 | 1.06 ± 0.029 | 1.02 ± 0.038 | 1.03 ± 0.031 | 1.034 ± 0.0044 | 1.08 ± 0.014 | 1.08 ± 0.027 | 1.03 ± 0.012 | 1.04 ± 0.024 | 0.9533 ± 0.0085 | 0.938 ± 0.037
4 | VCAP PROSTATE | 1.03 ± 0.065 | 0.971 ± 0.075 | 1.14 ± 0.15 | 1.04 ± 0.047 | 1.17 ± 0.078 | 1.13 ± 0.19 | 1.01 ± 0.1 | 0.94 ± 0.047 | 0.835 ± 0.089 | 0.828 ± 0.047 | 0.889 ± 0.21 | 1.15 ± 0.049 | 0.957 ± 0.07 | 0.901 ± 0.1 | 0.839 ± 0.035 | 0.956 ± 0.073
5 | VP229 BREAST | 1.1 ± 0.09 | 1.12 ± 0.06 | 1.18 ± 0.11 | 1.12 ± 0.049 | 1.22 ± 0.11 | 1.17 ± 0.11 | 1.17 ± 0.017 | 1.13 ± 0.063 | 1.23 ± 0.14 | 1.21 ± 0.039 | 1.21 ± 0.15 |  | 1.04 ± 0.11 | 0.92 ± 0.058 | 0.626 ± 0.019 | 0.436 ± 0.087
6 | YAMATO SYNOVIAL | 1.27 ± 0.17 | 1.32 ± 0.11 | 1.35 ± 0.16 | 1.34 ± 0.043 | 1.33 ± 0.19 | 1.38 ± 0.029 | 1.27 ± 0.026 | 1.27 ± 0.14 | 1.22 ± 0.066 | 1.31 ± 0.15 | 1.23 ± 0.12 | 1.24 ± 0.077 | 1.25 ± 0.16 | 1.31 ± 0.022 | 1.21 ± 0.16 | 1.13 ± 0.045
7 | ZR751 BREAST | 1.08 ± 0.16 | 1.1 ± 0.096 | 1.14 ± 0.17 | 1.02 ± 0.052 | 1.07 ± 0.071 | 1.03 ± 0.076 | 1.07 ± 0.095 | 1.03 ± 0.15 | 0.879 ± 0.09 | 0.898 ± 0.17 | 1.01 ± 0.08 | 1.1 ± 0.23 | 0.816 ± 0.069 | 0.785 ± 0.031 | 0.662 ± 0.038 | 0.746 ± 0.062
